Assay [1] deals with HCT-5 cells. Kind of assay: Apoptosis of HCT-5 cells (Annexin V-PE / 7-AAD, FACS). The assay is classed as cell-based, human. The settings on record: HCT-5, 1 μM, 21 days. The procedure: In this Example, experiments were carried out using the cells cultured for 21 days in Example 5. To detect apoptotic cells in the cells cultured for 21 days by adding 1 μM of compound A or compound B, the cells were stained by use of PE Annexin V apoptosis Detection Kit I (BD) and analyzed by FACS. In this analysis, the viable cells were detected based on FSC (forward scatter)-SSC (side scatter) plots. The viable cells were analyzed by Annexin V-PE (annexin V) and 7-AAD (7-amino actinomycin D). Early apoptotic cells were detected as Annexin V (+) 7-AAD (−) cells. The results were as shown in FIG. 8 (HCT-4 cells) and FIG. 9 (HCT-5 cells).

The next assay concerns the target EZH1 (Homo sapiens, UniProt Q92800). To be noted: from WO2015/141616; cited from earlier work.
A further assay concerns HAM patient-derived PBMC. Description: IL-10 and other cytokine release from HAM patient-derived PBMC (Cytokine Beads Array). It counts as cell-based, human. To be noted: PBMC of 8 HAM patients, 12 days culture, 1-1000 nM, relative to DMSO. The procedure:
PBMC taken from 8 HAM patients were suspended in a culture medium (RPMI1640 culture medium containing 10% FBS), seeded in a 48-well plate in a ratio of 5×10^5 cells per well and a compound A or compound B was added so as to provide a final concentration of 1, 10, 100 or 1000 nM. The culture solution of 0.5 mL in total was cultured at 37° C. in 5% CO2 conditions for 12 days. A group treated with DMSO and a group treated with PSL (1 μg/mL) were used as controls. Day 12 after initiation of the culture, the culture solution was centrifuged, and thereafter, the culture supernatant alone was recovered. The concentration of IL-10 in the culture supernatant was determined by use of the Cytokine Beads Array kit (BD Biosciences) and a flow cytometer FACSCantoII (BD Biosciences) (Yamauchi et al., J Infect Dis. 2015, 211 (2): 238-48). Based on the IL-10 concentration in the culture solution of the DMSO treatment group as 100%, changes in IL-10 concentration of culture solutions of groups treated with compound A and compound B different in concentration or a group treated with PSL (1 μg/mL) were compared. The significance test was carried out by using the Friedman test of GraphPad Prism6 (MDF).

Assay [2] concerns HCT-5 cells. Description: Proliferation/viability of HTLV-1 infected cell line HCT-5 (CCK-8). The assay is classed as cell-based, human. The settings on record: for Viability of HTLV-1 infected cells vs DMSO group: HCT-5, 1 μM, up to 21 days culture; for GI50: Homo sapiens, 336 h, 14 days culture, CCK-8. The procedure:
HCT-4 and HCT-5, which were HTLV-1 infected cell lines established from the cerebrospinal fluid of HAM patients, were donated from a professor, Tatsufumi Nakamura of the Nagasaki International University. HCT-4 was cultured in RPMI1640 culture medium containing 10% FBS (GIBCO), a 1% penicillin-streptomycin solution (Wako) and 100 U/mL IL-2 (Cell Science & Technology Institute, Inc.); whereas HCT-5 was cultured by using 10% FBS, 1% penicillin-streptomycin solution, 1% L-glutamine (SIGMA) and 200 U/mL IL-2. HCT-4 (3×10^6 cells) or HCT-5 (2.5×10^6 cells) were seeded in a culture medium (20 mL) in a 75 cm^2-culture flask. DMSO was added and compound A or B was added so as to provide a final concentration of 1 μM and culture was carried out at 37° C. in 5% CO2 conditions for 21 days while repeating subculture. In the subculture, a culture solution containing HCT-4 treated with DMSO so as to correspond to 3×10^6 cells, whereas a culture solution containing HCT-5 treated with DMSO so as to correspond to 2.5×10^6 cells were taken and each added to a new culture medium to obtain a final volume of 20 mL, and then, further compound A or B was added so as to obtain the same concentration as above. Day 7, 14 and 21 after initiation of culture, cells were recovered from the culture solution and the density of the cells was measured. In this manner, the effect of compound A or B on cell proliferation was examined. The density of cells was determined by seeding cultured cells in a 96-well plate in a volume of 100 μL per well, adding 10 μL of Cell counting kit-8 (CCK-8) (Dojindo Laboratories laboratory) per well, incubating the cells at 37° C. for 3 hours and measuring absorbance at 450 nm by a plate reader (iMark Microplate Reader, Biorad). The proliferation rates of cell groups treated with compound A or compound B were each calculated based on the cell group treated with DMSO as a control. Next, in a 6-well plate, HCT-4 (4.5×10^5 cells) or HCT-5 (3.75×10^5 cells) were seeded. A solution of compound A or B prepared with DMSO was serially diluted (4-fold dilution from 10000 nM was serially repeated 8 times) and added thereto. The cells were repeatedly subcultured at intervals of 3 to 4 days in a culture solution of 3 mL in total at 37° C. in 5% CO2 condition for 14 days. […] The cells cultured for 14 days in individual conditions were recovered and the density of the cells were measured. […] The density of cells was determined by seeding the cultured cells (100 μL) per well in a 96-well plate, adding 10 μL of CCK-8 per well, incubating the cells at 37° C. for 3 hours and measuring absorbance at 450 nm by a plate reader. The proliferation rate of a group treated with compound A or compound B was calculated based on the group treated with DMSO as a control.

The next assay addresses EZH2 (Homo sapiens, UniProt Q15910). To be noted: from WO2015/141616; cited from earlier work.

Data on 2 molecules can be found in patent US11311524B2, “Pharmaceutical composition used for treatment of HTLV-1-associated myelopathy” (DAIICHI SANKYO COMPANY, LIMITED, priority 2017, dated 2022).

The term GI50 denotes the concentration giving 50% growth inhibition. Lower therefore signals greater sensitivity of the cells.

Sequence of EZH2 (Q15910 whole entry): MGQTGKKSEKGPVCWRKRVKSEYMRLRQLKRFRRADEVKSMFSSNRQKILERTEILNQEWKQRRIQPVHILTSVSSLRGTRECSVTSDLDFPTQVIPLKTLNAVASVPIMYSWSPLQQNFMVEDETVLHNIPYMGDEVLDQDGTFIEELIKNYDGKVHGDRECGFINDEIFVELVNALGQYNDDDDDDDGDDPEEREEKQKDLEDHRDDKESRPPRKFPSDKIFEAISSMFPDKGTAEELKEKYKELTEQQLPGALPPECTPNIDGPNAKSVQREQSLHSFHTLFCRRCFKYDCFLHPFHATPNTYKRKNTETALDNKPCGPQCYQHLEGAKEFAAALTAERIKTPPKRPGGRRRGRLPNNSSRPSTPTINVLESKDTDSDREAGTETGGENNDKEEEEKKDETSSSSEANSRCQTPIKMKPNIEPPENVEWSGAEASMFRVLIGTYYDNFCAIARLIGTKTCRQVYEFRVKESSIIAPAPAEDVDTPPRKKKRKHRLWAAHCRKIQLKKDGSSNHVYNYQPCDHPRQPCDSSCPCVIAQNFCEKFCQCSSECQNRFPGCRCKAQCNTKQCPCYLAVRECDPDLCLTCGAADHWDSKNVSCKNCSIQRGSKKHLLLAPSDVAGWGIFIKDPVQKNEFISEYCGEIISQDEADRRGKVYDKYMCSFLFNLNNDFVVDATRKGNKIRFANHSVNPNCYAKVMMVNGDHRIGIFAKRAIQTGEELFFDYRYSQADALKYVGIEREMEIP
Sequence of EZH2 (O75530 whole entry partner): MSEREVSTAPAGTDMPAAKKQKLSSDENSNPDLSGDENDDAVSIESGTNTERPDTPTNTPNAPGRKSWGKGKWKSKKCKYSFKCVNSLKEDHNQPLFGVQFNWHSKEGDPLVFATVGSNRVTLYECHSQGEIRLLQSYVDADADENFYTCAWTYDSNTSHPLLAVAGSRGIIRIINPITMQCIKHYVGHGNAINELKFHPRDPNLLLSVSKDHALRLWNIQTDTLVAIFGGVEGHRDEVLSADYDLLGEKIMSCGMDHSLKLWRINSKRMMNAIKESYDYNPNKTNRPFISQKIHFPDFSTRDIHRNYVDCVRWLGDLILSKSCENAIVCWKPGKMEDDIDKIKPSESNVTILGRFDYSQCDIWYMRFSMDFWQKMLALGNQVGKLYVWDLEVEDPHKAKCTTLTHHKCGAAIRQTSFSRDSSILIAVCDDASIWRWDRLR
Sequence of EZH2 (Q15022 whole entry partner): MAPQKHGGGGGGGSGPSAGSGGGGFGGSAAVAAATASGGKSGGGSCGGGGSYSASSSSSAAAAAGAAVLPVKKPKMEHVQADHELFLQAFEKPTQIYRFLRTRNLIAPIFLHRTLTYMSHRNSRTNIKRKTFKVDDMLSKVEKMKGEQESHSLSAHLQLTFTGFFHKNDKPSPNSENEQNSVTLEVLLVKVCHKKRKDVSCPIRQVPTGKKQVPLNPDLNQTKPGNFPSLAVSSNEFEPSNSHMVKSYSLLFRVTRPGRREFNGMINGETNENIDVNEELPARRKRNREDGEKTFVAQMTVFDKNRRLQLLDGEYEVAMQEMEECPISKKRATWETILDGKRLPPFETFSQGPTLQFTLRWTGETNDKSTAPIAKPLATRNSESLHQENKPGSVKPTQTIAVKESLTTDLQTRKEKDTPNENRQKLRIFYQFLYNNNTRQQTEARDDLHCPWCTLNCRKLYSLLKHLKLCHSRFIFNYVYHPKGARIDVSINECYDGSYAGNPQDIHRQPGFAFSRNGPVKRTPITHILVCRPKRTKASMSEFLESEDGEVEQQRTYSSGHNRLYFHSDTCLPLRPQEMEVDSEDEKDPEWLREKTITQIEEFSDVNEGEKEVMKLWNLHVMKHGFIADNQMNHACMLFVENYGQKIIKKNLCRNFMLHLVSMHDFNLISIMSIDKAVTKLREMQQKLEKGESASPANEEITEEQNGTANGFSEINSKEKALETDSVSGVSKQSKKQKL
Sequence of EZH2 (Q09028 whole entry partner): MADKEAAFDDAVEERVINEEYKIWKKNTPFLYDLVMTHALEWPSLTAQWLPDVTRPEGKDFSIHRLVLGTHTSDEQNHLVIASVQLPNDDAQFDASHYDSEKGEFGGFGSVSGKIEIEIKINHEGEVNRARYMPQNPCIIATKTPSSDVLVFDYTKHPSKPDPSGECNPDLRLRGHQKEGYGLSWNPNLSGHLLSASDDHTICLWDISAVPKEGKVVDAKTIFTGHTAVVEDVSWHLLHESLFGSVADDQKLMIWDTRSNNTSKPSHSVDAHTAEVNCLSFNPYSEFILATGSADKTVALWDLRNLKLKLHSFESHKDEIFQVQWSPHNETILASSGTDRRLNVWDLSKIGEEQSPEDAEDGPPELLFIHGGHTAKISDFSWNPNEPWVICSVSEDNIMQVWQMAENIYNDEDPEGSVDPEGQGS
Sequence of EZH1 (Q92800 whole entry): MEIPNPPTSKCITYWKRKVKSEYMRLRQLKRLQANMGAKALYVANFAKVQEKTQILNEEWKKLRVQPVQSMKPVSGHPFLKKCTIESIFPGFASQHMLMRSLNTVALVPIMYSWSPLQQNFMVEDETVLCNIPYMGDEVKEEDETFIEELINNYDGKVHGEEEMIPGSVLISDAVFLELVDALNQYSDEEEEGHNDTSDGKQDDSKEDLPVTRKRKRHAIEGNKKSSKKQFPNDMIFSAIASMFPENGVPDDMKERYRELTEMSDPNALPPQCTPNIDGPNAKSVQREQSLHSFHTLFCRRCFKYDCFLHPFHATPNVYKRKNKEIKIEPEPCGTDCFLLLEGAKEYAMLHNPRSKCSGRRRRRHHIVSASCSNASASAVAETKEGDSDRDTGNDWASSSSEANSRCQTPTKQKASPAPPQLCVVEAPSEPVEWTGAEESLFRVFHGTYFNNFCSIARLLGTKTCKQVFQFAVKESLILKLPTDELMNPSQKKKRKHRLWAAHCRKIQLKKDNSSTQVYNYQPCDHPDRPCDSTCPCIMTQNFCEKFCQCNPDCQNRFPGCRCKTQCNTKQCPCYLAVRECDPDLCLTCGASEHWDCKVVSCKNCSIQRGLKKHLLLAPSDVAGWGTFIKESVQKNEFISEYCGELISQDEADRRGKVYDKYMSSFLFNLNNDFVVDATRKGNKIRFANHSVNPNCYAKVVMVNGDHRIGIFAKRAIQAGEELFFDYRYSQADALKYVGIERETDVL
Sequence of EZH1 (O75530 whole entry partner): as the sequence (O75530 whole entry partner) above
Sequence of EZH1 (Q15022 whole entry partner): as the sequence (Q15022 whole entry partner) above
Sequence of EZH1 (Q09028 whole entry partner): as the sequence (Q09028 whole entry partner) above

As to `Cc1cc(C)c(CNC(=O)c2cc(Br)c3c(c2C)O[C@@](C)([C@H]2CC[C@H](N(C)C)CC2)O3)c(=O)[nH]1` [compound A, (2R)-7-bromo-2-[trans-4-(dimethylamino)cyclohexyl]-N-[(4,6-dimethyl-2-oxo-1,2-dihydropyridin-3-yl)methyl]-2,4-dimethyl-1,3-benzodioxole-5-carboxamide], in the assay with HCT-5 cells [1], the “Number of early apoptotic cells (Annexin V (+) 7-AAD (−))” value is listed as “the number of early apoptotic cells increased” and the “Number of viable cells (FSC-SSC)” value was “the number of viable cells decreases”. Besides, at EZH1, the “Inhibition of enzyme activity of EZH1” value is listed as “inhibit”. Further, in the assay on HAM patient-derived PBMC, the “Yield of IL-10 from PBMC” value is “dramatically increased”. In the assay with HCT-5 cells [2], the “Viability of HTLV-1 infected cells vs DMSO group” value was “significantly reduce the viability” and it took 185 nM to inhibit growth by half (GI50). Further, the “Inhibition of enzyme activity of EZH2” value at EZH2 is reported as “inhibit”.

As for `Cc1cc(C)c(CNC(=O)c2cc(Cl)c3c(c2C)O[C@@](C)([C@H]2CC[C@H](N(C)C)CC2)O3)c(=O)[nH]1` [compound B, (2R)-7-chloro-2-[trans-4-(dimethylamino)cyclohexyl]-N-[(4,6-dimethyl-2-oxo-1,2-dihydropyridin-3-yl)methyl]-2,4-dimethyl-1,3-benzodioxole-5-carboxamide], in the assay with HCT-5 cells [1], the “Number of early apoptotic cells (Annexin V (+) 7-AAD (−))” value is on record as “the number of early apoptotic cells increased” and the “Number of viable cells (FSC-SSC)” value was “the number of viable cells decreases”. In addition, the “Inhibition of enzyme activity of EZH1” value at EZH1 was “inhibit”. Also, the “Yield of IL-10 from PBMC” value in the assay on HAM patient-derived PBMC is “dramatically increased”. Also, in the assay with HCT-5 cells [2], the “Viability of HTLV-1 infected cells vs DMSO group” value is listed as “significantly reduce the viability” and growth was halved (GI50) at 90.6 nM. Moreover, the “Inhibition of enzyme activity of EZH2” value on EZH2 was “inhibit”.
